Series [1] relates to guinea pig lung parenchyma strips. Put plainly: Isolated lung strips, muscle contraction. The note with it: for effect on anandamide bronchoconstriction in vitro: SR141716A 1 μM, lung strips. Here is the method: Guinea pig parenchimal strips were prepared essentially as described in Samhoun, M. N., et al. (1984) Prostaglandins, 27, 711-724. The strips were placed in 10-ml organ baths containing Krebs' buffer (in mM: NaCl, 118; KCl, 4; K2HPO4, 1.2; MgSO4, 1.2; CaCl2, 2.5; NaHCO3, 25.0; glucose, 11.2; supplemented with […] atropine sulfate and […] indomethacin) at 37° C. and aerated with an oxygen/carbon dioxide mixture (95/5%). Muscle contractions were recorded with an isometric force transducer (U. Basile) and expressed in dyne per mg of fresh tissue.

For series [2], the system named is capsaicin-evoked bronchospasm. Put plainly: Capsaicin-evoked bronchospasm in anesthetized guinea pigs. Format: in vivo, guinea pig. To be noted: for reversal of anandamide's inhibition of capsaicin-evoked bronchospasm: antagonist given with anandamide, SR141716A 0.5 mg per kg i.v., SR144528 0.3 mg per kg i.v. (maximal dose); for intrinsic effect on capsaicin-evoked bronchoconstriction: capsaicin via tracheal catheter or i.v., antagonist i.v.; for effect on capsaicin-evoked bronchospasm: administered systemically before capsaicin.

Series [3] concerns bronchial smooth muscle. Put plainly: Bronchoconstriction in vagotomized, atropine-treated guinea pigs. Format: in vivo, guinea pig. To be noted: for effect on anandamide bronchoconstriction in vivo: antagonist before anandamide; for bronchial muscle constriction, % of maximal bronchospasm: tracheal administration, n=6.
Series [4] concerns bronchial smooth muscle. The series is described as follows: Direct bronchomotor action in anesthetized animals with intact vagus. Type of series: in vivo, guinea pig.
Series [5] deals with capsaicin-evoked cough. To be noted: guinea pig, in vivo.
Series [6] relates to capsaicin-evoked bronchospasm. The series is described as follows: Capsaicin-evoked bronchospasm in anesthetized rats. Type of series: in vivo, rat. The note with it: n=3.
In series [7] the test system is bronchial smooth muscle. Put plainly: Bronchoconstriction in vagotomized, atropine-treated rats. Type of series: in vivo, rat. The note with it: after vagotomy and atropine, n=3.
Setting [8] is: capsazepine 0.2 mg per kg, i.v.

In the case of `CCCCC/C=C\C/C=C\C/C=C\C/C=C\CCCC(=O)Nc1ccc(O)cc1` [N-(4-hydroxyphenyl)-arachidonamide], the “anandamide-evoked contraction of isolated lung strips” value in series [1] (anandamide 50 μM plus N-(4-hydroxyphenyl)-arachidonamide 28 μM, P<0.05, n=6) is recorded as 0.638±0.06 dyne/mg of tissue.

On to `Oc1cc2c(cc1O)CN(C(=S)NCCc1ccc(Cl)cc1)CCC2` [capsazepine], for which, in series [2] (setting [8]), the “effect on the capsaicin response (bronchospasm)” value was “completely prevented”. Besides, in series [3] (setting [8]), the “effect on anandamide-evoked bronchospasm” value was “had no effect”.

`Cc1c(C(=O)NN2CCCCC2)nn(-c2ccc(Cl)cc2Cl)c1-c1ccc(Cl)cc1` [SR141716A]: in series [2], the “reversal of anandamide's inhibition of capsaicin-evoked bronchospasm” value was “completely reversed” and the “intrinsic effect on capsaicin-evoked bronchoconstriction” value was “significantly enhanced”. For the same molecule, the “bronchospasm, % of maximal bronchospasm” value in series [2] (capsaicin i.v. after SR141716A 0.5 mg per kg i.v., P<0.05, n=3) turned out to be 92.3±3.4%. Besides, the “bronchomotor consequences per se” value in series [4] (antagonist alone, without capsaicin, guinea pigs) is “no bronchomotor consequences per se”. Further, in series [3], the “effect on anandamide bronchoconstriction in vivo” value was “blocked”. The “effect on anandamide bronchoconstriction in vitro” value in series [1] is on record as “blocked”. Also, in series [5] (iv), the “effect of CB1 receptor blockade on anandamide's reduction of capsaicin-evoked cough” value is “abrogated” and the “intrinsic effect on capsaicin-evoked coughing” value is “significantly enhanced”.

In the case of `CCCCCCC(C)(C)c1cc(O)c2c(c1)OC(C)(C)[C@@H]1CC=C(CO)C[C@@H]21` [HU210], the “bronchial muscle constriction, % of maximal bronchospasm” value was determined as 10.0±0.6% in series [3] (0.1 mg per animal), 30±1.2% in series [3] (1 mg per animal), 60±2.2% in series [3] (10 mg per animal) and 100% in series [3] (30 mg per animal).

Regarding `CCCCC/C=C\C/C=C\C/C=C\C/C=C\CCCC(=O)NCCO` [anandamide, arachidonylethanolamide], in series [2], the “effect on capsaicin-evoked bronchospasm” value was “abrogated”. The “bronchospasm, % of maximal bronchospasm” value in series [6] (capsaicin intratracheal after anandamide 1 mg per kg i.v.) is reported as 14±7%. The “bronchoconstriction, % of maximal” value in series [4] (5 mg per kg (highest dose tested), mean±s.e.m., n=5) is reported as 11.8±5.9%. Further, the direct bronchomotor action result in series [4] (doses below the highest dose tested (5 mg per kg), species not given) is given as “no direct bronchomotor action”. For the same molecule, the “bronchomotor effect after vagotomy and atropine” value in series [3] (systemic application, guinea pigs) is listed as “dose-dependent bronchoconstriction”. Moreover, the “bronchoconstriction, % of maximal bronchospasm” value in series [7] (1 mg per kg i.v.) is given as 0±0%; in series [7] (3 mg per kg i.v.), 12±1.7%; in series [7] (5 mg per kg i.v.), 18.3±1.2%. In addition, the “contraction of isolated lung strips” value in series [1] (anandamide 50 μM alone, n=6) is reported as 0.336±0.07 dyne/mg of tissue. Besides, in series [5], the “visual signs of cannabinoid intoxication” value is recorded as “not accompanied by any visual signs of cannabinoid intoxication”.

With `COc1cc(CNC(=O)CCCC/C=C/C(C)C)ccc1O` [capsaicin], the “bronchospasm, % of maximal bronchospasm” value in series [2] (capsaicin alone, i.v., n=3) came to 55.3±8.2%; in series [6] (capsaicin 30 mg per animal, intratracheal), 55±12%; in series [6] (capsaicin 100 mg per animal, intratracheal), 81±19%; in series [6] (capsaicin intratracheal alone (anandamide experiment)), 37.2±4.2%; in series [6] (capsaicin, intratracheal, mean±s.e.m.), 41±6%.

For SR144528, in series [2], the “reversal of anandamide's inhibition of capsaicin-evoked bronchospasm” value is on record as “only slightly reduced” and the “intrinsic effect on capsaicin-evoked bronchoconstriction” value was “had no such effects”. Besides, the “effect on anandamide bronchoconstriction in vivo” value in series [3] was “had no such effect”. Besides, in series [1], the “effect on anandamide bronchoconstriction in vitro” value is “had no such effect”. Further, the “intrinsic effect on capsaicin-evoked coughing” value in series [5] (iv) was “had no such effects”.

In the case of `CCCCCCCCCCCCCCCC(=O)NCCO` [Palmitylethanolamide], the “effect on capsaicin-evoked bronchospasm” value in series [2] is reported as “ineffective”.

These data come from patent publication US6974568B2, “Treatment for cough” (The Regents of the University of California, priority 2000, dated 2005).
